The subject of one assay is tropoelastin mRNA. Kind of assay: RT-PCR assay of tropoelastin mRNA. It is filed as cell-based, human. Conditions: 10 nmol/L insulin; for effect of inhibitor on insulin-induced up-regulation of tropoelastin mRNA: pretreated 30 minutes and maintained with inhibitor. The method, then:
At the end of the treatments, total RNA was extracted from quadruplicate cultures in each experimental group using the RNEASY® (RNA isolation) Mini Kit. One microgram total RNA from each sample was added to one-step RT-PCR (One-Step RT-PCR Kit; Qiagen, Inc.). The reactions were set up in a total volume of 25 μL. The reverse transcription step was performed for elastin and 18S ribosomal RNA reactions at 50° C. for 30 minutes, followed by 15 minutes at 95° C. The elastin PCR reaction using sense primer 5′[…]-3′ (SEQ ID NO 1) and antisense primer 5′[…]3′ (SEQ ID NO 2). The products were analyzed using ethidium bromide staining and densitometry-based image analysis using an optical system (Gel Doc 1000; Bio-Rad Laboratories, Inc., Hercules, Calif.). The amount of tropoelastin mRNA was standardized relative to the amount of 18S ribosomal RNA and expressed as percentage of control values.

Assay [1] concerns human aortic SMCs (AoSMCs). Description: Immunocytochemistry and morphometry of elastic fibers in AoSMC cultures. It is filed as cell-based. Conditions: for effect of inhibitor on elastogenic effects of insulin (immunostained elastic fibers, [3H]-valine-labeled insoluble elastin): 2% FBS; for effect of inhibitor on elastogenic effects of IGF-1: 10 nmol/L IGF-1, parallel AoSMC cultures. From the text:
Human aortic SMCs (AoSMCs) were propagated from small fragments of aortic media collected from autopsy. Guidelines for the protection of human subjects of the US Department of Health and Human Services and of the Declaration of Helsinki were followed in obtaining tissues for this investigation. Cells migrating from the cultured explants of aortic media were routinely passaged (up to three times) via trypsinization using 0.2% trypsin-0.02% EDTA, and were maintained in DMEM supplemented with 5% FBS and 1% antibiotic-antimycotic mix. The second and third passages of cells that migrated from the original explants of aortic media were routinely probed with antibodies recognizing the SMC-specific α-actin to monitor the preservation of the SMC phenotype. All cells were initially plated at 100,000 cells per dish for immediate confluency so they would begin extracellular matrix production. The cell cultures committed to particular experiments were then transferred to DMEM containing either 2% FBS or to serum-free medium before initiation of particular treatments.
At the end of treatments, confluent cultures of AoSMCs were fixed in cold 100% methanol at −20° C. for 30 minutes, and blocked with 1% normal goat serum for 1 hour. The cultures were then incubated for 1 hour with 10 μg/mL polyclonal antibodies to tropoelastin and/or with 10 μg/mL monoclonal antibody to SMC-specific α-actin. All cultures were then incubated for another hour with the respective fluorescein-conjugated secondary antibodies (fluorescein-conjugated goat anti-rabbit or anti-mouse). Nuclei were counterstained with red-fluorescent propidium iodide or blue-fluorescent DAPI. The cultures were then mounted in ethanol and examined using a microscope (Eclipse E1000; Nikon Instruments, Inc., Melville, N.Y.) attached to a cooled CCD camera (Retiga EX; QImaging Corp., Vancouver, BC, Canada) and a computer-generated morphometric analysis system (Image-Pro Plus software; Media Cybernetics, Inc., Bethesda, Md.). In each analyzed group, 50 low-power fields from three separate cultures were analyzed, and the areas occupied by immunodetectable elastic fibers were expressed as a percentage of the entire analyzed field.

For the next assay, the system named is tropoelastin. Kind of assay: Metabolically labeled tropoelastin in cell extracts and conditioned media (secretion). It is filed as cell-based, human. The conditions noted are these: 1-hour preincubation with LY294002, 10 nmol/L insulin. The protocol: Cells were plated in 35-mm dishes at a density of 100,000 cells per dish and were grown to confluency. Two microcuries [3H]-valine per milliliter fresh medium supplemented with 2% FBS was added 2 hours before the indicated treatments. At the end of each experiment, the conditioned medium was collected and subjected to immunoprecipitation using anti-tropoelastin antibody. The cell layers were washed with PBS and incubated using radioimmunoprecipitation lysis buffer for 10 minutes on ice. After centrifugation, the supernatants were collected and subjected to immunoprecipitation using anti-tropoelastin antibody. […] Final results (counts per minute) reflecting the total amount of [3H]-valine-labeled insoluble elastin in individual cultures were normalized per their DNA contents (assessed using the Qiagen […] isolation) Tissue Kit) and expressed as percentage of control values. At the end of all treatments, cells from quadruplicate cultures in each experimental group were lysed using NP40 cell lysis buffer (Invitrogen Corp.). Thirty micrograms of protein extracts from each sample was suspended in standard sample buffer, resolved on 4% to 12% gradient SDS-PAGE gels, transferred to nitrocellulose membranes, and subjected to Western blotting using antibodies. At the end of indicated treatments, the cultured cells were lysed as described, and 300 μL aliquots of cell extracts containing […] were incubated at 4° C. for 3 hours with the aliquots of protein G bound DYNABEADS® (Invitrogen Corp.) that were conjugated with either rabbit polyclonal anti-tropoelastin, goat polyclonal anti-Glut10, or rabbit polyclonal anti-S-Gal antibodies. The beads carrying the final immunoprecipitation products were then washed with PBS, resuspended in sample buffer, and boiled for 5 minutes. The released proteins were then resolved on SDS-PAGE gel and subjected to Western blotting using indicated antibodies.

A further assay has as its system S-Gal/EBP. Description: Association of tropoelastin with S-Gal/EBP chaperone (Western blot, co-immunoprecipitation, double immunostaining). Format: cell-based, human. The method, then:
Cultures fixed for 30 minutes in cold 100% methanol were then blocked with 1% glycine for 15 minutes, followed by 2% bovine serum albumin with 0.1% Triton X-100 for another hour at room temperature. They were finally exposed for 1 hour to the mixture of 5 μg/mL polyclonal anti-S-Gal/EBP and 5 μg/mL monoclonal anti-tropoelastin antibodies. All cultures were then incubated for another hour with the mixture of fluorescein-conjugated and rhodamine-conjugated secondary antibodies. Nuclei were counterstained with DAPI. At the end of all treatments, cells from quadruplicate cultures in each experimental group were lysed using NP40 cell lysis buffer (Invitrogen Corp.). Thirty micrograms of protein extracts from each sample was suspended in standard sample buffer, resolved on 4% to 12% gradient SDS-PAGE gels, transferred to nitrocellulose membranes, and subjected to Western blotting using antibodies. At the end of indicated treatments, the cultured cells were lysed as described, and 300 μL aliquots of cell extracts containing […] were incubated at 4° C. for 3 hours with the aliquots of protein G bound DYNABEADS® (Invitrogen Corp.) that were conjugated with either rabbit polyclonal anti-tropoelastin, goat polyclonal anti-Glut10, or rabbit polyclonal anti-S-Gal antibodies. The beads carrying the final immunoprecipitation products were then washed with PBS, resuspended in sample buffer, and boiled for 5 minutes. The released proteins were then resolved on SDS-PAGE gel and subjected to Western blotting using indicated antibodies.
Background: A western blot detects proteins with antibodies after separation by electrophoresis.

Another assay relates to FoxO1. Kind of assay: FoxO1 binding to elastin gene promoter DNA probe (FRE) on DYNABEADS
It is filed as cell-based, human. The conditions noted are these: AoSMCs treated 30 minutes with 10 nmol/L insulin, or preincubated with LY294002. The protocol: Cells were then scraped, and their nuclear extracts were pre-pared using an isolation kit (Active Motif, Inc.). […] The equal molar amounts of both single-stranded DNA oligonucleotides were annealed in Tris-EDTA buffer (10 mmol/L Tris-HCl, 1 mmol/L EDTA (pH 8.0)) to form the double-stranded DNA probe. […] All preparations were subsequently incubated for 2 hours in 200 μL binding buffer (50 mmol/L KCl, 10% glycerol, 20 mmol/L HEPES (pH 7.9), 1 mmol/L MgCl2, 1 mmol/L DTT, 0.1 μg poly(DI-DC) (polydeoxyinosinic-deoxycytidylic), and proteinase inhibitors). After binding, the beads were washed four times in the same binding buffer, without poly(DI-DC). The bound proteins were resolved using 8% SDS-PAGE and probed using Western blotting with the anti-FoxO1 monoclonal antibody.

Setting [2] is: 24-hour AoSMC cultures, 10 nmol/L insulin.
Setting [3] is: 10 nmol/L IGF-1, 24-hour AoSMC cultures.

Entries after “also recorded” stand apart in the source; their conditions may differ.

As for `CC(C)(C)c1cc(C=C(C#N)C#N)cc(Br)c1O` [AG1024], the “effect of inhibitor on insulin-induced up-regulation of tropoelastin mRNA” value (“effect of inhibitor … of tropoelastin mRNA” below) in the assay with tropoelastin mRNA is “abrogated”. In assay [1] (setting [2]), the “effect of inhibitor on elastogenic effects of insulin (immunostained elastic fibers, [3H]-valine-labeled insoluble elastin)” value was “eliminated the elastogenic effects”.
`COc1ccc(CNc2nc(N(CCO)CCO)nc3c2ncn3C(C)C)cc1` [CVT313]: the “effect of cdk-2 inhibition on elastogenic effect of IGF-1” value in assay [1] (setting [3]) was “abolished the final elastogenic effect”. The “effect of cdk-2 inhibition on elastogenic effect of insulin” value in assay [1] (10 nmol/L insulin, 24-hour AoSMC cultures) is reported as “did not diminish the elastogenic effect; also recorded: still exhibited heightened deposition of elastic fibers”.
With `O=c1cc(N2CCOCC2)oc2c(-c3ccccc3)cccc12` [LY294002], the “effect of PI3K inhibition on insulin-induced changes in tropoelastin levels” value in the assay on tropoelastin was “could not be observed”. In the assay with S-Gal/EBP (LY294002 preincubation (data not shown)), the “insulin-induced tropoelastin/S-Gal/EBP co-localization in cells preincubated with inhibitor” value was “could not induce such tropoelastin/S-Gal/EBP co-localization”. Also, the “effect of PI3K inhibitor on insulin-induced S-Gal/EBP coimmunoprecipitation” value in the assay with S-Gal/EBP (pretreated 30 minutes with PI3K inhibitor) is listed as “could not be induced; also recorded: could not induce the same effect”. Also, the “effect of inhibitor … of tropoelastin mRNA” value in the assay with tropoelastin mRNA is listed as “abrogated”. For the same compound, in the assay on FoxO1, the “binding of FoxO1 from nuclear extracts to elastin promoter FRE DNA probe” value is listed as “bound abundant FoxO1 proteins”. Also, the “effect of inhibitor on elastogenic effects of IGF-1” value in assay [1] was “abolished the elastogenic effects; also recorded: also eliminated”. Further, in assay [1] (setting [2]), the “effect of inhibitor on elastogenic effects of insulin (immunostained elastic fibers, [3H]-valine-labeled insoluble elastin)” value is “eliminated the elastogenic effects”.
For the compound `OC[C@H]1O[C@@H](n2cnc3cc(Cl)c(Cl)cc32)[C@H](O)[C@@H]1O` [dichloro-benzimidazole riboside, dichlorobenzimidazole riboside], the “effect of transcription inhibitor on insulin-induced up-regulation of tropoelastin mRNA” value with tropoelastin mRNA (pretreatment with 50 μmol/L inhibitor) is given as “completely abolished”.
As to `COc1cc([C@@H]2c3cc4c(cc3[C@H](O)[C@H]3COC(=O)[C@@H]23)OCO4)cc(OC)c1OC` [picropodophyllin], the “effect of inhibitor … of tropoelastin mRNA” value in the assay on tropoelastin mRNA was “did not inhibit”. In addition, the “effect of inhibitor on elastogenic effects of IGF-1” value in assay [1] is given as “also eliminated”.
Regarding IGF-1, in assay [1] (setting [3]), the “elastogenic effect of IGF-1” value is “elastogenic effects”.

These data come from patent US20150359854A1 (HUMAN MATRIX SCIENCES, LLC, priority 2012, published 2015).
